In ChEMBL document CHEMBL1201862, “PubChem BioAssay data set” (2004):
Activity calls are given as the source filed them.

Tests used:
[1] = target: T1, Rac GTPase-activating protein 1 (Homo sapiens, UniProt Q9H0H5); experiment: blockers of MgcRacGAP-driven Rac1 GTP hydrolysis – biochemical, ADP Hunter fluorescence, primary and confirmatory, confirmation (AID 624330); type: functional
T1 sequence (Q9H0H5 whole entry): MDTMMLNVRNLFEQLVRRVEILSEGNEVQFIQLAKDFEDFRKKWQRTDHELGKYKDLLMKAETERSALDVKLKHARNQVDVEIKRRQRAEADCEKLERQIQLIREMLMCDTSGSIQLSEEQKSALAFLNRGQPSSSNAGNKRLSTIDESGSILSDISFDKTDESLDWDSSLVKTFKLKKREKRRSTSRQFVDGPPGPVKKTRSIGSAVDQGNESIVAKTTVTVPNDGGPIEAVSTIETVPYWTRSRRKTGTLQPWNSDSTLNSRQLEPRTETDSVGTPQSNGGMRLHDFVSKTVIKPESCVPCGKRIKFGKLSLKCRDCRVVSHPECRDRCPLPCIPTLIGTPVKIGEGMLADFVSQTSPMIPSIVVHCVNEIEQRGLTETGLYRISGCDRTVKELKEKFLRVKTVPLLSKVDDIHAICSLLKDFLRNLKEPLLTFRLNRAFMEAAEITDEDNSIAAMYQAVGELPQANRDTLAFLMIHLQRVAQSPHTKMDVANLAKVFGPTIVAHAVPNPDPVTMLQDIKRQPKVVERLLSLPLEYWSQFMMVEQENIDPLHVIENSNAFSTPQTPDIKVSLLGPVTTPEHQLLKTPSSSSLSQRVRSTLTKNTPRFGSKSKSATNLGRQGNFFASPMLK

[2] = target: T2, Polyadenylate-binding protein 1 (Homo sapiens, UniProt P11940); experiment: MLLE binding blockers, Cy5 peptide tracer – biochemical, fluorescence polarization, Cy5-PAM2 peptide, secondary, miRNA deadenylation inhibitor project, dose response (AID 602260); type: functional; conditions: read-out: IC50_Mean
Genome polyprotein = Genome polyprotein (dengue virus type 2, UniProt P29990); experiment: flavivirus cap methylation enzyme inhibition – biochemical, confirmation dose response, primary screen (AID 588689); type: functional
[3] = target: T3, Voltage-gated N-type calcium channel alpha-1B subunit/Amyloid beta A4 precursor protein-binding family A member 1 (Homo sapiens, UniProt Q00975+Q02410); type: protein assay
[4] = target: T2, Polyadenylate-binding protein 1; experiment: MLLE domain peptide-binding blockers, IC50 – biochemical, fluorescence polarization, FITC-PAM2 peptide, dose response (AID 602259); type: functional; conditions: read-out: IC50_Mean
[5] = target: T3, Voltage-gated N-type calcium channel alpha-1B subunit/Amyloid beta A4 precursor protein-binding family A member 1; type: protein assay; remark: listed apart in the source
[6] = Luminescence Cell-Based Dose Response HTS to Identify Inhibitors of 5'UTR Stem-Loop Driven Prion Protein mRNA Translation in H4 Neuroglioblastoma Cells. [Related pubchem assays: 1827 (Project Summary), 1813 (Primary HTS)]; type: functional
[7] = alpha-synuclein stem-loop luciferase translation blockers – H4 neuroglioma cells, luminescence, confirmation (AID 1988); type: functional, cell-based
[8] = luciferase reporter signal suppression in cells – H4 neuroglioma cells, luminescence, dose response (AID 1990); type: functional, cell-based
[9] = target: G-protein coupled receptor 55 (Homo sapiens, UniProt Q9Y2T6); experiment: inhibition of LPI-stimulated GPR55 beta-arrestin translocation – imaging, U2OS, beta-arrestin-GFP, LPI agonist, primary screen (AID 2013); type: functional;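 also: antagonist potency measured as reduced agonist-driven arrestin aggregation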
Tumor necrosis factor = Tumor necrosis factor (Homo sapiens, UniProt P01375); experiment: analog potency on TNFa NF-kB signaling – cell-based, revised, SAR follow-up (AID 2337); type: functional
[10] = target: T4, Nucleotide-binding oligomerization domain-containing protein 1 (Homo sapiens, UniProt Q9Y239); experiment: blockers of NOD1 pathway activity – revised, SAR follow-up (AID 2333); type: functional
T4 sequence (Q9Y239 whole entry): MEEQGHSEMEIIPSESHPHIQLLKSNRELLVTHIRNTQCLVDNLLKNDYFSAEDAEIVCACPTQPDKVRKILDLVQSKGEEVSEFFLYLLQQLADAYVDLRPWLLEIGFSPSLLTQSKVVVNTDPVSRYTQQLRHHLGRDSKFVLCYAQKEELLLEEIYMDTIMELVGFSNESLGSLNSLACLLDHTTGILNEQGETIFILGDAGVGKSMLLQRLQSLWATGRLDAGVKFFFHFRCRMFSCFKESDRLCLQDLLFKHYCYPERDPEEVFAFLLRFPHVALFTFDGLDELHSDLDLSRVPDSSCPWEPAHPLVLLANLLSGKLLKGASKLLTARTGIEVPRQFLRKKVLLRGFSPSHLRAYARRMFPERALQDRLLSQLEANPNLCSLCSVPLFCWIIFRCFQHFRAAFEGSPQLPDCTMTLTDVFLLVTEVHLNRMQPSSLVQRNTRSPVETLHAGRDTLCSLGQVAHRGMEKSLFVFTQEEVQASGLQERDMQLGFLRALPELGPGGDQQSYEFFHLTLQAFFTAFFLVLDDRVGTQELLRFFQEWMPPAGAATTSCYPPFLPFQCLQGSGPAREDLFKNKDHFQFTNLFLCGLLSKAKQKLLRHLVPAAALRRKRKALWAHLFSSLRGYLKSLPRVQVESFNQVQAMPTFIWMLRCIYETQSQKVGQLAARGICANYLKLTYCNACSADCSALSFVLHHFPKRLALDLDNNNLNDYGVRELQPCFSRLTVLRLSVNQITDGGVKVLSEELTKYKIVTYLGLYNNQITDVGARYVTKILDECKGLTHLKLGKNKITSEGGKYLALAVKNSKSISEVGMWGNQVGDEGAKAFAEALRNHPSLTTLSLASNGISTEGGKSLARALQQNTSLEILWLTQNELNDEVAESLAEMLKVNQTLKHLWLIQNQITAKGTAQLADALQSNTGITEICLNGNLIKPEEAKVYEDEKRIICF

[11] = target: Nucleotide-binding oligomerization domain-containing protein 2 (Homo sapiens, UniProt Q9HC29); experiment: PubChem AID 2334; type: functional
HEK293 [12] = experiment: NOD2 signaling inhibitors in MDP-stimulated cells, cell-based, uHTS, luminescence (AID 2001); type: functional; conditions: Homo sapiens
HEK293 [13] = experiment: cells; type: functional, cell-based; conditions: Homo sapiens
HEK293 [14] = experiment: cells; conditions: Homo sapiens
HEK293 [15] = experiment: inhibition of NOD1-driven NF-kB reporter – cell-based, luminescence, uHTS, primary screen (AID 1578); type: functional; conditions: Homo sapiens
HEK293 [16] = experiment: cells; type: functional, cell-based; conditions: Homo sapiens; remark: listed apart in the source
Large T antigen = Large T antigen (Simian virus 40, UniProt P03070); type: functional, Betapolyomavirus macacae;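 also: Confirmatory-stage PubChem screen for compounds that inhibit SV40 T antigen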
[17] = target: DNA dC->dU-editing enzyme APOBEC-3G (Homo sapiens, UniProt Q9HC16); type: functional;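 also: Dose-response counterscreen measuring inhibition of APOBEC3G DNA deaminase activity, run while confirming APOBEC3A inhibitors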
[18] = target: DNA dC->dU-editing enzyme APOBEC-3A (Homo sapiens, UniProt P31941); experiment: Dose Response confirmation of small molecule APOBEC3A DNA Deaminase Inhibitors via a fluorescence-based single-stranded DNA deaminase assay. [Related pubchem assays (depositor defined):AID493011, AID493024]; type: functional
Sequence of DNA dC->dU-editing enzyme APOBEC-3A (P31941 whole entry): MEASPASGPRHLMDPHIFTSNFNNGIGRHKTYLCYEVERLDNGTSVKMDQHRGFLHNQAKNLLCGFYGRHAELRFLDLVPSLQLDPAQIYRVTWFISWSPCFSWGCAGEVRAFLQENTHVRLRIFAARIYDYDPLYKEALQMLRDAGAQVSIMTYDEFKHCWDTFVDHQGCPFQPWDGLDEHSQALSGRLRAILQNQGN

T3 sequence (Q00975 whole entry, the tested form may be a part): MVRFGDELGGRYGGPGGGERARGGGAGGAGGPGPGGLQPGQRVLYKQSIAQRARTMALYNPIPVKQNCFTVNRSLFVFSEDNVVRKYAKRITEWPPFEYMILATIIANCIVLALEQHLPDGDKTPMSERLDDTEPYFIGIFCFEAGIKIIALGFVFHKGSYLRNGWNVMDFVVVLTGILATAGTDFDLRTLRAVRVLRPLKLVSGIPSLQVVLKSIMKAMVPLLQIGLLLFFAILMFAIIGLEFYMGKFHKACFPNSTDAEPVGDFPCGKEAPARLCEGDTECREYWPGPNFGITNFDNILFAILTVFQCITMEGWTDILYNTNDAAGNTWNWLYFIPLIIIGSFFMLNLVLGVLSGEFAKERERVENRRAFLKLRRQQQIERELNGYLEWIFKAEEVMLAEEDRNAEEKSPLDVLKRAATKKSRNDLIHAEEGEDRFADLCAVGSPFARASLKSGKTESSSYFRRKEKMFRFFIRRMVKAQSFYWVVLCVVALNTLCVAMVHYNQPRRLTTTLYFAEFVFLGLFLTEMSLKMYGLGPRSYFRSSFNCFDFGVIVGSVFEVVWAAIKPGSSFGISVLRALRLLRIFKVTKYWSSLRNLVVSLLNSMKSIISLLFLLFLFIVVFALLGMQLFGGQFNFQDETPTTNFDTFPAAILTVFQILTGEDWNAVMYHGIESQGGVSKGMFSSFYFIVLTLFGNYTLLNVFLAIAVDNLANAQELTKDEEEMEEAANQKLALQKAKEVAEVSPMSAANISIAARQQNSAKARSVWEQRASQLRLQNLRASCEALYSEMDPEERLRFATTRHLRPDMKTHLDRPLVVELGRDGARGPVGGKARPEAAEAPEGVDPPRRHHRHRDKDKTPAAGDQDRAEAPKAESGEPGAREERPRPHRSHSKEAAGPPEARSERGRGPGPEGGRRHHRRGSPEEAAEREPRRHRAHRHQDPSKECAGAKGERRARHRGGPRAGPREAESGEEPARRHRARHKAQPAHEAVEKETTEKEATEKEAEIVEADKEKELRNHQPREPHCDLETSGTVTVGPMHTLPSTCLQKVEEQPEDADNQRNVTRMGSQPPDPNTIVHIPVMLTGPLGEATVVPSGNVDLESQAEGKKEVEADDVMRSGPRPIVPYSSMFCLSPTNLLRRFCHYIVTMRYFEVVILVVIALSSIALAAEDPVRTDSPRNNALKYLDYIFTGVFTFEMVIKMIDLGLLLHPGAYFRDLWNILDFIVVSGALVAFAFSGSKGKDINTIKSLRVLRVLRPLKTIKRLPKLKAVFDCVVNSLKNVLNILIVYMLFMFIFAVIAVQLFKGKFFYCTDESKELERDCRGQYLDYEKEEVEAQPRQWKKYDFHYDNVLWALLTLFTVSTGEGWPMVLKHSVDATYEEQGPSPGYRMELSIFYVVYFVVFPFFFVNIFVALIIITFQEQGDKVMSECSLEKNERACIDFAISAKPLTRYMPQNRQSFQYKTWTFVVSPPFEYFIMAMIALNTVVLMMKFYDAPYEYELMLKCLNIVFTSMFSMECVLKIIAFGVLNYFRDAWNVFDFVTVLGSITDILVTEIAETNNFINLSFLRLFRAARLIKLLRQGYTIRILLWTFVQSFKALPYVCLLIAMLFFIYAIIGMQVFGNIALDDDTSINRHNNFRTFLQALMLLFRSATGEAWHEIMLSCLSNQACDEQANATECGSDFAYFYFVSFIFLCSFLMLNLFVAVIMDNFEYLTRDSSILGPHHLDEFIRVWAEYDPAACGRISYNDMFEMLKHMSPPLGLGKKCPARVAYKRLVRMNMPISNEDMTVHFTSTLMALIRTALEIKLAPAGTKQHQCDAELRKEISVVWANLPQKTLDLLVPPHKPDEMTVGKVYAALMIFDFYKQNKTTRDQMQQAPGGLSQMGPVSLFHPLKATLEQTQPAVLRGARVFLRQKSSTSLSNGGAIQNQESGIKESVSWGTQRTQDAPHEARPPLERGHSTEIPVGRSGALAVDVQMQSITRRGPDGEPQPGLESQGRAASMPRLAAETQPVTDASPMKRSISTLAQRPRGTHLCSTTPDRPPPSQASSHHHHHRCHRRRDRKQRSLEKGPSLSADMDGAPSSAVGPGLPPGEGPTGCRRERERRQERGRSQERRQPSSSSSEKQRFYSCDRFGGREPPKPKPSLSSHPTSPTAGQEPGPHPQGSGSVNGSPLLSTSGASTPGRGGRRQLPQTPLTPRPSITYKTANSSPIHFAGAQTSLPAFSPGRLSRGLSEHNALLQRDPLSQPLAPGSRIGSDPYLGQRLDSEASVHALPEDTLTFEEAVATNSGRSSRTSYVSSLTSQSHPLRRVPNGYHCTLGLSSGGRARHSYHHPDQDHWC
T3 sequence (Q02410 whole entry, the tested form may be a part): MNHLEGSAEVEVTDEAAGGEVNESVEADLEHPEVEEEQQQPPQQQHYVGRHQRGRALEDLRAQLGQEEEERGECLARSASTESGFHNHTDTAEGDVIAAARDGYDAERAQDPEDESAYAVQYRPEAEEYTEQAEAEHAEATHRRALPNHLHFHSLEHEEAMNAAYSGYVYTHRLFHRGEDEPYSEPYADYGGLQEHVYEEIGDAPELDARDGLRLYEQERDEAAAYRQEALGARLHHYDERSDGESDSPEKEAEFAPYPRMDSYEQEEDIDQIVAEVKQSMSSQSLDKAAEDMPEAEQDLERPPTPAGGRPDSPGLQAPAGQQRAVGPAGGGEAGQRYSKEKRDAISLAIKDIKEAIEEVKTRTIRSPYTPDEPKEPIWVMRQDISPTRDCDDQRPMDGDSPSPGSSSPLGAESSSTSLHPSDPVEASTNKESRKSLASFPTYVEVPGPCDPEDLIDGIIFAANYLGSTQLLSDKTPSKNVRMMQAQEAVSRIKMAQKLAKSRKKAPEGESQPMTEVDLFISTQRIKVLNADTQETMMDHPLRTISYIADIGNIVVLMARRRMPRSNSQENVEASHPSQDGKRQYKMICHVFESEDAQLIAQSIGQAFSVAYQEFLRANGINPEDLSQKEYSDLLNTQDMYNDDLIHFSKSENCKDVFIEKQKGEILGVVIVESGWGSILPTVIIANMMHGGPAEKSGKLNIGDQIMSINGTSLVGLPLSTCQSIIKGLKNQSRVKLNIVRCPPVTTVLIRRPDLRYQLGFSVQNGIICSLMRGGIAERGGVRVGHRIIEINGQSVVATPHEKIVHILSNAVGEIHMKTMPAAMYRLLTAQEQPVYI
T2 sequence (P11940 whole entry): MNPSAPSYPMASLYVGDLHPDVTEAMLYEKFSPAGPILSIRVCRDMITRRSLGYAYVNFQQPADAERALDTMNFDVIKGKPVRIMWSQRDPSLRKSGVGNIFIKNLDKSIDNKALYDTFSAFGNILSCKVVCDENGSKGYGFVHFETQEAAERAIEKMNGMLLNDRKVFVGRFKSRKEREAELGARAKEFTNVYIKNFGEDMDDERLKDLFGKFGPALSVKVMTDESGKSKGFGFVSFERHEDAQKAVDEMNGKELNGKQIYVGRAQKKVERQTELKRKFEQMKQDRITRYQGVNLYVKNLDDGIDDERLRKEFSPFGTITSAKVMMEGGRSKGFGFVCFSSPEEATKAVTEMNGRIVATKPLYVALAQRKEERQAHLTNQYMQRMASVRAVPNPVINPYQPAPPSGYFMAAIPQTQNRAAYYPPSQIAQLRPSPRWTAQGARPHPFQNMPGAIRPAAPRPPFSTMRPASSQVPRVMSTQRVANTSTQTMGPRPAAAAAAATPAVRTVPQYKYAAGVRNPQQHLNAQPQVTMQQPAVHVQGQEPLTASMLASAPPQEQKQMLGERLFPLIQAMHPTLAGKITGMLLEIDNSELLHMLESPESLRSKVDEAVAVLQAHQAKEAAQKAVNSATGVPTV
Sequence of Nucleotide-binding oligomerization domain-containing protein 2 (Q9HC29 whole entry, the tested form may be a part): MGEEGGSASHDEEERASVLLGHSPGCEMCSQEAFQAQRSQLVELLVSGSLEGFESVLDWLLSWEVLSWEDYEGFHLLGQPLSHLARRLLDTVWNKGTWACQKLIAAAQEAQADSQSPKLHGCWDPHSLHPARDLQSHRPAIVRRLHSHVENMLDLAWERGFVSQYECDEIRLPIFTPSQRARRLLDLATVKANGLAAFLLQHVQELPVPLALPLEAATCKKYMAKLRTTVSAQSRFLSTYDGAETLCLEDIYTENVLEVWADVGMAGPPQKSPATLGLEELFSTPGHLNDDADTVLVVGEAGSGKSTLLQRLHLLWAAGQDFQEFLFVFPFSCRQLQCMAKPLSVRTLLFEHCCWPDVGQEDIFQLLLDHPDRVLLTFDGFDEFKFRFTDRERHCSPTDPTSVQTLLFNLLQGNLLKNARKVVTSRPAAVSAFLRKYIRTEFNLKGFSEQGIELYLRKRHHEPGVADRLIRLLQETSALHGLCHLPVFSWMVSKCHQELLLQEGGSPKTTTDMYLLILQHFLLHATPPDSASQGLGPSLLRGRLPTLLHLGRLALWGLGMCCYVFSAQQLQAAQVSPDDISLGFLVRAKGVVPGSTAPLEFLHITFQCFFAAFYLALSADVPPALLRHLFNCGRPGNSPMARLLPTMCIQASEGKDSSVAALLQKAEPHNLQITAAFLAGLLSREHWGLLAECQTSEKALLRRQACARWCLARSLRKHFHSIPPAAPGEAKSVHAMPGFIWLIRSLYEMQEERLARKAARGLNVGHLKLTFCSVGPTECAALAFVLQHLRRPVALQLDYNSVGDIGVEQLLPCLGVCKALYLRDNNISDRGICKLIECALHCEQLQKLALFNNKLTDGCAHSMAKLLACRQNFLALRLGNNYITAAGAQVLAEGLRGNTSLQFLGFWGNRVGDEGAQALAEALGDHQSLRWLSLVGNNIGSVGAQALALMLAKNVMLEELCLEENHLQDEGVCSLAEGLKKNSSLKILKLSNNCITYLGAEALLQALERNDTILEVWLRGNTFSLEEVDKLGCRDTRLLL

O=C(O)CCn1cc(C=C2C(=O)NC(=S)NC2=O)c(-c2ccccc2)n1
IC50 [1]: 86.5 µM (active)
IC50 [2]: > 66 µM (inactive)
IC50 (Genome polyprotein): 7.65 µM (active)
IC50 [3]: 13.1 µM (active)
IC50 [4]: > 66 µM (inactive)
IC50 [5]: 19.8 µM (active)

COc1ccc(C2c3ccc(O)cc3Oc3ncn4nc(-c5cccnc5)nc4c32)cc1OC (stereo not drawn)
EC50 [6]: 52.3 µM (active)
EC50 [7]: > 120 µM (not active)
EC50 [8]: > 120 µM (not active)
IC50 [9]: 1.99 µM (active)

CCCCn1c(SCC(=O)Nc2nnc(C(C)C)s2)nc2c1c(=O)n(C)c(=O)n2C
IC50 (Tumor necrosis factor): 5.82 µM (active)
IC50 [10]: 5.79 µM (active)
IC50 [11]: 6.89 µM (active)
IC50 (HEK293 [12]): 9.58 µM (active)
IC50 (HEK293 [13]): > 20 µM (inactive)
IC50 (HEK293 [14]): > 20 µM (inactive)
EC50 (HEK293 [15]): 7.02 µM (active)
IC50 (HEK293 [16]): > 20 µM (inactive)

O=C1NC(=O)N(CCc2ccc(F)cc2)C(=O)/C1=C/c1ccco1
IC50 (Large T antigen): 12.3 µM (active)
IC50 [17]: 20.5 µM (active)
IC50 [18]: 15 µM (active)
IC50 [3]: 14.8 µM (active)
IC50 [5]: > 50 µM (inactive)
